Consider 17 molecules from patent publication US20260053932A1, “COMPOUNDS AND METHODS FOR THE TARGETED DEGRADATION OF ANDROGEN RECEPTOR AND ASSOCIATED METHODS OF USE” (Arvinas Operations, Inc., priority 2020, published 2026).

By DC50 is commonly meant the concentration giving 50% degradation.

For the first experiment, the system named is androgen receptor (AR) in LNCaP and/or VCaP cells. The experiment is described as follows: Androgen Receptor ELISA assay (AR degradation). The format is cell-based. The following applies: LNCaP and/or VCaP cells; 5 hours incubation; media with R1881; read-out: DC50 Code* (degradation of AR ELISA). A digest of the protocol:
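VCaP cells grown ≥3 days, then treated 5 h with compound in media containing 1 nM R1881 (10× stock). Cells lysed and AR quantified by sandwich ELISA (mouse AR detection Ab, HRP anti-mouse, TMB). DC50 and Dmax derived from AR degradation.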
In general terms: ELISA stands for enzyme-linked immunosorbent assay.
For the molecule `CC(C)N(CC1CN(c2ncc(C(=O)N[C@H]3CC[C@H](Oc4ccc(C#N)c(Cl)c4)CC3)cn2)C1)[C@H]1C[C@H](Oc2ccc3c(c2)C(=O)N(C2CCC(=O)NC2=O)C3=O)C1` (some centres unmarked) [Compound 66, N-((1r,4r)-4-(3-chloro-4-cyanophenoxy)cyclohexyl)-2-(3-((((1r,3r)-3-((2-(2,6-dioxopiperidin-3-yl)-1,3-dioxoisoindolin-5-yl)oxy)cyclobutyl) (isopropyl)amino)methyl)azetidin-1-yl)pyrimidine-5-carboxamide], the 50% degradation concentration (DC50) was less than 1 nM. Still for that read-out and setting: next, `COCCN(CC1CCN(c2cnc(C(=O)N[C@H]3CC[C@H](Oc4ccc(C#N)c(OC)c4)CC3)cn2)CC1)[C@H]1C[C@H](Oc2ccc3c(c2)C(=O)N(C2CCC(=O)NC2=O)C3=O)C1` (some centres unmarked) [Compound 68, N-((1r,4r)-4-(4-cyano-3-methoxyphenoxy)cyclohexyl)-5-(4-((((1r,3r)-3-((2-(2,6-dioxopiperidin-3-yl)-1,3-dioxoisoindolin-5-yl)oxy)cyclobutyl)(2-methoxyethyl)amino)methyl)piperidin-1-yl)pyrazine-2-carboxamide]: less than 1 nM. Same read-out and setting: next, `CC1(N2C(=O)c3cc(F)c(N4CCN(CC5CCN(c6ccc(C(=O)N[C@H]7CC[C@H](Oc8ccc(C#N)c(Cl)c8)CC7)nn6)CC5)CC4)cc3C2=O)CCC(=O)NC1=O` (some centres unmarked) [Compound 69, N-((1r,4r)-4-(3-chloro-4-cyanophenoxy)cyclohexyl)-6-(4-((4-(6-fluoro-2-(3-methyl-2,6-dioxopiperidin-3-yl)-1,3-dioxoisoindolin-5-yl)piperazin-1-yl)methyl)piperidin-1-yl)pyridazine-3-carboxamide]: less than 1 nM.

As to `CCOc1cc(O[C@H]2CC[C@H](NC(=O)c3cnc(N4CC(CN(C(C)C)[C@H]5C[C@H](Oc6ccc7c(c6)C(=O)N(C6CCC(=O)NC6=O)C7=O)C5)C4)nc3)CC2)ccc1C#N` (some centres unmarked) [Compound 70, N-((1r,4r)-4-(4-cyano-3-ethoxyphenoxy)cyclohexyl)-2-(3-((((1r,3r)-3-((2-(2,6-dioxopiperidin-3-yl)-1,3-dioxoisoindolin-5-yl)oxy)cyclobutyl) (isopropyl)amino)methyl)azetidin-1-yl)pyrimidine-5-carboxamide], the DC50 lay in the range of 1 to 10 nM. On the same count and under the same terms, as for `N#Cc1ccc(O[C@H]2CC[C@H](NC(=O)c3ccn(C4CCC(CN5CCN(c6ccc7c(c6)CN(C6CCC(=O)NC6=O)C7=O)CC5)CC4)n3)CC2)cc1Cl` (some centres unmarked) [Compound 71, N-((1r,4r)-4-(3-chloro-4-cyanophenoxy)cyclohexyl)-1-(4-((4-(2-(2,6-dioxopiperidin-3-yl)-1-oxoisoindolin-5-yl)piperazin-1-yl)methyl)cyclohexyl)-1H-pyrazole-3-carboxamide], the figure is 1 to 10 nM; as for `CC1(C)[C@H](NC(=O)c2ccn([C@H]3CC[C@H](CCCOc4ccc5c(c4)C(=O)N(C4CCC(=O)NC4=O)C5=O)CC3)n2)C(C)(C)[C@H]1Oc1ccc(C#N)c(Cl)c1` (stereo partly drawn) [Compound 72, N-((1r,3R)-3-(3-chloro-4-cyanophenoxy)-2,2,4,4-tetramethylcyclobutyl)-1-((1r,4R)-4-(3-((2-(2,6-dioxopiperidin-3-yl)-1,3-dioxoisoindolin-5-yl)oxy)propyl)cyclohexyl)-1H-pyrazole-3-carboxamide], greater than 100 nM; as for `CC(C)N(CC1CCN(c2cnc(C(=O)N[C@H]3CC[C@H](Oc4ccc(C#N)c(Cl)c4)CC3)cn2)CC1)[C@H]1C[C@H](Oc2ccc3c(c2)C(=O)N(C2CCC(=O)NC2=O)C32CC2)C1` (some centres unmarked) [Compound 73, N-((1r,4r)-4-(3-chloro-4-cyanophenoxy)cyclohexyl)-5-(4-((((1r,3r)-3-((2′-(2,6-dioxopiperidin-3-yl)-3′-oxospiro[cyclopropane-1,1′-isoindolin]-5′-yl)oxy)cyclobutyl) (isopropyl)amino)methyl)piperidin-1-yl)pyrazine-2-carboxamide], greater than 100 nM. Same read-out and setting: as for `CN1C(=O)CCC(N2C(=O)c3cc(F)c(N4CCN(CC5CCN(c6ccc(C(=O)N[C@H]7CC[C@H](Oc8ccc(C#N)c(Cl)c8)CC7)nn6)CC5)CC4)cc3C2=O)C1=O` (some centres unmarked) [Compound 74, N-((1r,4r)-4-(3-chloro-4-cyanophenoxy)cyclohexyl)-6-(4-((4-(6-fluoro-2-(1-methyl-2,6-dioxopiperidin-3-yl)-1,3-dioxoisoindolin-5-yl)piperazin-1-yl)methyl)piperidin-1-yl)pyridazine-3-carboxamide], the figure is greater than 100 nM; as for `CC(C)N(CC1CCN(c2cnc(C(=O)N[C@H]3CC[C@H](Oc4ccc(C#N)c(Cl)c4)CC3)cn2)CC1)[C@H]1C[C@H](Oc2ccc3c(c2)C(=O)N([C@@H]2C(=O)NC(=O)C[C@H]2C)C3=O)C1` [Compound 75, N-((1r,4r)-4-(3-chloro-4-cyanophenoxy)cyclohexyl)-5-(4-((isopropyl((1S,3r)-3-((2-((3S,4R)-4-methyl-2,6-dioxopiperidin-3-yl)-1,3-dioxoisoindolin-5-yl)oxy)cyclobutyl)amino)methyl)piperidin-1-yl)pyrazine-2-carboxamide], greater than 100 nM; as for `CC(C)N(CC1CCN(c2cnc(C(=O)N[C@H]3CC[C@H](Oc4ccc(C#N)c(Cl)c4)CC3)cn2)CC1)[C@H]1C[C@H](Oc2ccc3c(c2)C(=O)N([C@@H]2C(=O)NC(=O)C[C@@H]2C)C3=O)C1` [Compound 76, N-((1r,4r)-4-(3-chloro-4-cyanophenoxy)cyclohexyl)-5-(4-((isopropyl((1S,3r)-3-((2-((3S,4S)-4-methyl-2,6-dioxopiperidin-3-yl)-1,3-dioxoisoindolin-5-yl)oxy)cyclobutyl)amino)methyl)piperidin-1-yl)pyrazine-2-carboxamide], greater than 100 nM. Still for that read-out and setting: as for `COc1cc(O[C@H]2C[C@H](N(CC3CCN(c4cnc(C(=O)N[C@H]5CC[C@H](Oc6ccc(C#N)c(C)c6)CC5)cn4)CC3)C(C)C)C2)cc2c1C(=O)N(C1CCC(=O)NC1=O)C2=O` (some centres unmarked) [Compound 78, N-((1r,4r)-4-(4-cyano-3-methylphenoxy)cyclohexyl)-5-(4-((((1r,3r)-3-((2-(2,6-dioxopiperidin-3-yl)-7-methoxy-1,3-dioxoisoindolin-5-yl)oxy)cyclobutyl) (isopropyl)amino)methyl)piperidin-1-yl)pyrazine-2-carboxamide], the figure is less than 1 nM.

Staying with this experiment, now noted: degradation of AR ELISA in LNCaP and/or VCaP cells; Table 2C; read-out: DC50 Code*.
As to `COc1cc2c(cc1O[C@H]1C[C@H](N(CC3CCN(c4cnc(C(=O)N[C@H]5C(C)(C)[C@H](Oc6cc(C)c(C#N)c(C)c6)C5(C)C)cn4)CC3)C(C)C)C1)C(=O)N(C1CCC(=O)NC1=O)C2=O` (some centres unmarked) [Compound 199, N-((1r,3r)-3-(4-cyano-3,5-dimethylphenoxy)-2,2,4,4-tetramethylcyclobutyl)-5-(4-((((1r,3r)-3-((2-(2,6-dioxopiperidin-3-yl)-6-methoxy-1,3-dioxoisoindolin-5-yl)oxy)cyclobutyl)(isopropyl)amino)methyl)piperidin-1-yl)pyrazine-2-carboxamide], the DC50 was less than 1 nM.

`CCN(CC1CCN(c2cnc(C(=O)N[C@H]3C(C)(C)[C@H](Oc4cc(C)c(C#N)c(C)c4)C3(C)C)cn2)CC1)[C@H]1C[C@H](Oc2cc(OC)c3c(c2)C(=O)N(C2CCC(=O)NC2=O)C3=O)C1` (some centres unmarked) [Compound 207, N-((1r,3r)-3-(4-cyano-3,5-dimethylphenoxy)-2,2,4,4-tetramethylcyclobutyl)-5-(4-((((1r,3r)-3-((2-(2,6-dioxopiperidin-3-yl)-7-methoxy-1,3-dioxoisoindolin-5-yl)oxy)cyclobutyl)(ethyl)amino)methyl)piperidin-1-yl)pyrazine-2-carboxamide]: the DC50 is less than 1 nM. On the same count and under the same terms, next, `COc1c(O[C@H]2C[C@H](N(CC3CCN(c4cnc(C(=O)N[C@H]5C(C)(C)[C@H](Oc6ccc(C#N)c(Cl)c6)C5(C)C)cn4)CC3)C(C)C)C2)ccc2c1CN(C1CCC(=O)NC1=O)C2=O` (some centres unmarked) [Compound 227, N-((1r,3r)-3-(3-chloro-4-cyanophenoxy)-2,2,4,4-tetramethylcyclobutyl)-5-(4-((((1r,3r)-3-((2-(2,6-dioxopiperidin-3-yl)-4-methoxy-1-oxoisoindolin-5-yl)oxy)cyclobutyl)(isopropyl)amino)methyl)piperidin-1-yl)pyrazine-2-carboxamide]: less than 1 nM.

As for `COc1cc(O[C@H]2C[C@H](N(CC3CCN(c4ncc(C(=O)N[C@H]5C(C)(C)[C@H](Oc6cc(C)c(C#N)c(C)c6)C5(C)C)cn4)CC3)C(C)C)C2)cc2c1C(=O)N(C1CCC(=O)NC1=O)C2=O` (some centres unmarked) [compound 79, N-((1r,3r)-3-(4-cyano-3,5-dimethylphenoxy)-2,2,4,4-tetramethylcyclobutyl)-2-(4-((((1r,3r)-3-((2-(2,6-dioxopiperidin-3-yl)-7-methoxy-1,3-dioxoisoindolin-5-yl)oxy)cyclobutyl) (isopropyl)amino)methyl)piperidin-1-yl)pyrimidine-5-carboxamide], the half-maximal degradation concentration (DC50) is less than 1 nM. The same measure, in the same setting: next, `CC(C)N(CC1CCN(c2ncc(C(=O)N[C@H]3C(C)(C)[C@H](Oc4ccc(C#N)c(Cl)c4)C3(C)C)cn2)CC1)[C@H]1C[C@H](Oc2ccc3c(c2)CN(C2CCC(=O)NC2=O)C3=O)C1` (some centres unmarked) [compound 80, N-((1r,3r)-3-(3-chloro-4-cyanophenoxy)-2,2,4,4-tetramethylcyclobutyl)-2-(4-((((1r,3r)-3-((2-(2,6-dioxopiperidin-3-yl)-1-oxoisoindolin-5-yl)oxy)cyclobutyl) (isopropyl)amino)methyl)piperidin-1-yl)pyrimidine-5-carboxamide]: less than 1 nM; `COc1cc(O[C@H]2C[C@H](N(CC3CCN(c4ncc(C(=O)N[C@H]5C(C)(C)[C@H](Oc6cc(C)c(C#N)c(C)c6)C5(C)C)cn4)CC3)C(C)=O)C2)cc2c1C(=O)N(C1CCC(=O)NC1=O)C2=O` (some centres unmarked) [compound 81, N-((1r,3r)-3-(4-cyano-3,5-dimethylphenoxy)-2,2,4,4-tetramethylcyclobutyl)-2-(4-((N-((1r,3r)-3-((2-(2,6-dioxopiperidin-3-yl)-7-methoxy-1,3-dioxoisoindolin-5-yl)oxy)cyclobutyl)acetamido)methyl)piperidin-1-yl)pyrimidine-5-carboxamide]: less than 1 nM.
